Results reported in patent publication EP4733300A1, “NOVEL CHROMENE-BENZIMIDAZOLE DERIVATIVE OR PHARMACEUTICALLY ACCEPTABLE SALT THEREOF, AND USE THEREOF” (Korea University Research and Business Foundation, priority 2023, dated 2024).
Like-named read-outs stand apart in the source and are kept apart here.

Assays:
[1] = tested on: MDA-MB-231; test: MTS assay cell viability, MDA-MB-231; type: cell-based; settings: Homo sapiens, read-out: IC50 values according to the cell viability inhibition
Procedure: MDA-MB-231 (Cell seeding numbers: 0.8(M231) x 10^4 cells/wells (confluency ≧ 25%), which is a human triple-negative breast cancer (TNBC) cell line, and JIMT-1 (Cell seeding numbers: 0.8(JIMT) x 10^4 cells/wells (confluency ≧ 25%)), which is a HER2 positive breast cancer (HER2+ BC) cell line, were used in the experiment.
The above cell lines were cultured in Dulbecco's modified Eagle's medium (DMEM) containing 10% fetal bovine serum (FBS), streptomycin-penicillin (100 U/mL), and Fungizone (0.625 µg/mL) at 5% CO2 and 37°C.
(§1) The human breast cancer cell lines MDA-MB-231 and JIMT-1 were treated with chromene-benzimidazole derivatives of Formulas 1-1 to 1-53 at various concentrations of 0, 1, and 5 µM, respectively, for 72 hours, and then cell viability was measured using the MTS assay technique. In the MTS assay, cells were attached to a 96-well plate for 24 hours, treated with the chromene-benzimidazole derivative for 72 hours, developed with MTS (3-(4,5-dimethylthiazol-2-yl)-5-(3-carboxymethoxyphenyl)-2-(4-sulfophenyl)-2H-tetrazolium) for 4 hours, and then the absorbance was measured at 490 nm using a Spectramax Plus384 microplate analyzer.
(§2) After treating the triple-negative breast cancer cell lines MDA-MB-231 and BT549 with the chromene-benzimidazole derivative Compound (1-1) by concentration (0, 0.01, 0.05, 0.1, 0.5, 1, 5, 10, 20, and 40 µM) for 72 hours, concentration-dependent cell viability (MTS assay) inhibition and IC50 values according to the cell viability inhibition were confirmed and shown in FIGS. 7A and 7B.
The […] MDA-MB-231 and […] were treated with the chromene-benzimidazole derivative compounds (1-13, 1-19, and 1-22) by concentration (0, 0.01, 0.05, 0.1, 0.25, 0.5, 1, 2, and 5 µM) for 72 hours. Detailed treatment conditions were the same as disclosed in Example 2.1. Concentration-dependent cell viability (MTS assay) inhibition and IC50 values according to the cell viability inhibition were confirmed and shown in FIG. 9.
After treating the triple-negative breast cancer cell line MDA-MB-231 with the chromene-benzimidazole derivative compounds (1-9, 1-10, 1-11, 1-15, 1-16, and 1-17) by concentration (0, 0.01, 0.05, 0.1, 0.25, 0.5, 1, 2, and 5 µM) for 72 hours, concentration-dependent cell viability (MTS assay) inhibition and IC50 values according to the cell viability inhibition were confirmed and shown in FIG. 13. […]

[2] = tested on: colorectal cancer cell line HCT116; test: MTS assay cell viability, HCT116; type: cell-based; settings: 0, 0.1, 0.5, 1, 5, and 10 µM, 72 hours
Procedure: (§3) After treating a hematologic cancer cell line HL-60, a liver cancer cell line HepG2, a lung cancer cell line H1299, a colorectal cancer cell line HCT116, and an ovarian cancer cell line SKOV3 with the chromene-benzimidazole derivative compound 1-22 by concentration (0, 0.1, 0.5, 1, 5, and 10 µM) for 72 hours, concentration-dependent cell viability (MTS assay) inhibition and IC50 values according to the cell viability inhibition were confirmed and shown in FIG. 11.

[3] = tested on: ovarian cancer cell line SKOV3; test: MTS assay cell viability, SKOV3; type: cell-based; settings: 0, 0.1, 0.5, 1, 5, and 10 µM, 72 hours
Procedure: as §3

[4] = tested on: lung cancer cell line H1299; test: MTS assay cell viability, H1299; type: cell-based; settings: 0, 0.1, 0.5, 1, 5, and 10 µM, 72 hours
Procedure: as §3

[5] = tested on: liver cancer cell line HepG2; test: MTS assay cell viability, HepG2; type: cell-based; settings: 0, 0.1, 0.5, 1, 5, and 10 µM, 72 hours
Procedure: as §3

[6] = tested on: hematologic cancer cell line HL-60; test: MTS assay cell viability, HL-60; type: cell-based; settings: 0, 0.1, 0.5, 1, 5, and 10 µM, 72 hours
Procedure: as §3

[7] = tested on: MDA-MB-231; test: Morphological changes of cells by optical microscope, MDA-MB-231; type: cell-based, human; settings: 72 hours; for morphological changes of cells: 0.5 µM
Procedure: (§4) After treating the MDA-MB-231 and BT549 cell lines with the 1-1 compound by concentration (0, 5, 10, and 20 µM) for 72 hours, morphological changes of cells were observed using an optical microscope, which is shown in FIG. 7C.
Subsequently, an experiment was performed as follows to confirm the targeting ability for Compounds 1-13 and 1-22. After treating the MDA-MB-231 cell line with the 1-22 and 1-13 compounds at a concentration of 0.5 µM for 72 hours, morphological changes of cells were observed using an optical microscope, and micrographs are shown in FIG. 10A. […] In addition, after treating MDA-MB-231 with the 1-22 and 1-13 compounds at a concentration of 0.5 µM for 72 hours, expression of HSP90 chaperon complexes (HSP90, HSP70, HSP27, HSF-1), HSP90 client proteins (EGFR, AKT, JAK2, STAT3), Tubulin targeting ability (Tubulin, mitosis marker p-His H3), and apoptosis-related factors (Cleaved caspase-7, Survivin, Mcl-1) proteins was confirmed using a Western blot technique, which is shown in FIG. 10B.

[8] = tested on: MDA-MB-231; test: Annexin V/PI staining flow cytometry, MDA-MB-231; type: cell-based, human
Source text: (§5) The degree of apoptosis of MDA-MB-231 and BT549 cells by the compound of Formula 1-1 was confirmed by a flow cytometer through Annexin V/PI staining, which is shown in FIG. 7D.

[9] = tested on: BT549; test: Propidium iodide DNA content flow cytometry (cell cycle), BT549; type: cell-based; settings: 0, 5, 10, and 20 µM, 72 hours
[10] = tested on: BT549; test: Annexin V/PI staining flow cytometry, BT549; type: cell-based
Source text: as §5

[11] = tested on: C-terminal domain of Hsp90; test: Hsp90 C-terminal activity by binding analysis with C recombinant protein; settings: compared to Novobiocin
Source text: In order to evaluate the ability to inhibit the C-terminal domain of Hsp90, it was attempted to evaluate the ability to inhibit Hsp90 C-terminal activity through analysis of binding force between the 1-1 compound, a C-terminal Hsp90 inhibitor Novobiocin, and an N-terminal inhibitor Onalespib, and a C recombinant protein.

[12] = tested on: STAT3, c-MET, ERK, and AKT; test: Western blot of HSP90 client proteins in MDA-MB-231; type: cell-based, human; settings: 0, 5, 10, and 20 µM, 72 hours
[13] = tested on: BT549; test: Morphological changes of cells by optical microscope, BT549; type: cell-based; settings: 0, 5, 10, and 20 µM, 72 hours
Procedure: as §4

[14] = tested on: tubulin; test: Western blot of tubulin and apoptosis-related proteins in MDA-MB-231; type: cell-based, human; settings: 0, 5, 10, and 20 µM, 72 hours
Procedure: Subsequently, after treating the MDA-MB-231 cell line with the compound of Formula 1-1 by concentration (0, 5, 10, and 20 µM) for 72 hours, degradation of tubulin and expression of apoptosis-related proteins were confirmed by Western blot, which is shown in FIG. 8C.

[15] = tested on: BT549; test: MTS assay cell viability, BT549; type: cell-based; settings: Homo sapiens, BT-549, 72 hours, read-out: IC50 values according to the cell viability inhibition
Procedure: as §1, §2

[16] = MDA-MB-231 and JIMT-1 treated, cell line of the values not given, 72 hours

Q: Which IC50 ([1]; MDA-MB-231, 72 hours) does the source give for `COc1c(NC(=O)Nc2ccc3[nH]c(-c4ccc(F)cc4)nc3c2)ccc2c1C=CC(C)(C)O2` [Compound 1-9, 1-(2-(4-fluorophenyl)-1H-benzo[d]imidazol-5-yl)-3-(5-methoxy-2,2-dimethyl-2H-chromen-6-yl)urea] here?
A: The IC50 was 273 nM.

Q: With `COc1c(NC(=O)Nc2ccc3[nH]c(-c4ccc(Cl)cc4)nc3c2)ccc2c1C=CC(C)(C)O2` [Compound 1-11, 1-(2-(4-chlorophenyl)-1H-benzo[d]imidazol-5-yl)-3-(5-methoxy-2,2-dimethyl-2H-chromen-6-yl)urea] as the molecule, how does the IC50 ([1]; MDA-MB-231, 72 hours) read?
A: Its IC50 is 335 nM.

Q: How did the cell viability inhibition [2] turn out when `COc1c(NC(=O)Nc2ccc3[nH]c(-c4ccc(C#N)cc4)nc3c2)ccc2c1C=CC(C)(C)O2` [Compound 1-13, 1-(2-(4-cyanophenyl)-1H-benzo[d]imidazol-5-yl)-3-(5-methoxy-2,2-dimethyl-2H-chromen-6-yl)urea] was run?
A: The cell viability inhibition was “effective cell viability inhibition”.

Q: What about the cell viability inhibition [3] of the same molecule?
A: Its cell viability inhibition is “effective cell viability inhibition”.

Q: What about the cell viability inhibition [4] of the same molecule?
A: Its cell viability inhibition is “effective cell viability inhibition”.

Q: What about the cell viability inhibition [5] of the same molecule?
A: Its cell viability inhibition is “effective cell viability inhibition”.

Q: What about the cell viability inhibition [6] of the same molecule?
A: The cell viability inhibition was “effective cell viability inhibition”.

Q: What about the “morphological changes of cells” value [7] of the same molecule?
A: The value was “Typical morphological changes of cell cycle arrest and apoptosis”.

Q: And the IC50 [1, 16]?
A: The IC50 was 154 nM.

Q: `COc1ccc(-c2nc3cc(NC(=O)Nc4ccc5c(c4OC)C=CC(C)(C)O5)ccc3[nH]2)cn1` [Compound 1-15, 1-(5-methoxy-2,2-dimethyl-2H-chromen-6-yl)-3-(2-(6-methoxypyridin-3-yl)-1H-benzo[d]imidazol-5-yl)urea] was tested. Which IC50 ([1]; MDA-MB-231, 72 hours) did it give?
A: Its IC50 is 452 nM.

Q: How did the IC50 ([1]; MDA-MB-231, 72 hours) turn out when `COc1c(NC(=O)Nc2ccc3[nH]c(-c4cccc(F)c4)nc3c2)ccc2c1C=CC(C)(C)O2` [Compound 1-10, 1-(2-(3-fluorophenyl)-1H-benzo[d]imidazol-5-yl)-3-(5-methoxy-2,2-dimethyl-2H-chromen-6-yl)urea] was run?
A: The IC50 was 829 nM.

Q: `COc1cc(-c2nc3cc(NC(=O)Nc4ccc5c(c4OC)C=CC(C)(C)O5)ccc3[nH]2)cc(OC)c1OC` [Compound 1-17, 1-(5-methoxy-2,2-dimethyl-2H-chromen-6-yl)-3-(2-(3,4,5-trimethoxyphenyl)-1H-benzo[d]imidazol-5-yl)urea] was tested. Which IC50 ([1]; MDA-MB-231, 72 hours) did it give?
A: Its IC50 is 586 nM.

Q: Which IC50 [1, 16] does the source give for `COc1c(NC(=O)Nc2ccc3[nH]c(-c4ccc(F)cc4F)nc3c2)ccc2c1C=CC(C)(C)O2` [Compound 1-19, 1-(2-(2,4-difluorophenyl)-1H-benzo[d]imidazol-5-yl)-3-(5-methoxy-2,2-dimethyl-2H-chromen-6-yl)urea] here?
A: The IC50 was 1060 nM.

Q: How did the IC50 ([1]; MDA-MB-231, 72 hours) turn out when `COc1c(NC(=O)Nc2ccc3[nH]c(-c4ccc(N(C)C)cc4)nc3c2)ccc2c1C=CC(C)(C)O2` [Compound 1-16, 1-(2-(4-(dimethylamino)phenyl)-1H-benzo[d]imidazol-5-yl)-3-(5-methoxy-2,2-dimethyl-2H-chromen-6-yl)urea] was run?
A: Its IC50 is 960 nM.

Q: What does the source list for `COc1c(NC(=O)Nc2ccc3[nH]c(Cl)nc3c2)ccc2c1C=CC(C)(C)O2` [Compound 1-1, 1-(2-chloro-1H-benzo[d]imidazol-5-yl)-3-(5-methoxy-2,2-dimethyl-2H-chromen-6-yl)urea]?
A: degree of apoptosis [8]: early and late apoptosis were induced; cell cycle (DNA content) [9]: G2/M phase cell cycle arrest; degree of apoptosis [10]: early and late apoptosis were induced; C-terminal HSP90 activity [11]: lowered C-terminal HSP90 activity to less than half compared to the existing Novobiocin; protein expression and phosphorylation of HSP90 client proteins [12]: decreases in protein expression and phosphorylation of STAT3, c-MET, ERK, and AKT; morphological changes of cells (apoptosis) [13]: apoptosis was induced in a concentration-dependent manner; degradation of tubulin / tubulin polymerization reaction [14]: could inhibit a tubulin polymerization reaction; morphological changes of cells (apoptosis) ([7]; 0, 5, 10, and 20 µM): apoptosis was induced in a concentration-dependent manner; IC50 ([1]; MDA-MB-231, 72 hours): 5660 nM; IC50 [15]: 8.49 µM

Q: How did the cell viability inhibition [2] turn out when `COc1c(NC(=O)Nc2ccc3[nH]c(-c4ccc(C)cc4)nc3c2)ccc2c1C=CC(C)(C)O2` [Compound 1-22, 1-(5-methoxy-2,2-dimethyl-2H-chromen-6-yl)-3-(2-(p-tolyl)-1H-benzo[d]imidazol-5-yl)urea] was run?
A: Its cell viability inhibition is “effective cell viability inhibition”.

Q: What about the cell viability inhibition [3] of the same molecule?
A: Its cell viability inhibition is “effective cell viability inhibition”.

Q: And the cell viability inhibition [4]?
A: Its cell viability inhibition is “effective cell viability inhibition”.

Q: What about the cell viability inhibition [5] of the same molecule?
A: Its cell viability inhibition is “effective cell viability inhibition”.

Q: And the cell viability inhibition [6]?
A: The cell viability inhibition was “effective cell viability inhibition”.

Q: What about the “morphological changes of cells” value [7] of the same molecule?
A: The value was “Typical morphological changes of cell cycle arrest and apoptosis”.

Q: And the IC50 [1, 16]?
A: The IC50 was 276 nM.
